Source: US10300000B2, “Inhibition of melanogenesis by chemically modified curcumins” (The Research Foundation for The State University of New York, priority 2016, dated 2019)
Read-outs that look alike come from different tables or passages of the source.

Tests used:
HEM-DP cells [1] = assay: Melanin content quantification in human epidermal melanocytes; format: cell-based; details: 48 hours
Procedure: Primary cultures of human epidermal melanocytes from a darkly pigmented donor were seeded at 2.2×10^5 cells/well in 1.5 ml media in 12-well plates and incubated for 48 hours. The test compounds were added to cultures and controls were treated with 0.16% DMSO, and further incubated for another 48 hours. For evaluation of melanin content, cells in the wells were trypsinized and cell pellets were washed in PBS. After aspiration, 250 μL of 1N NaOH was added and heated to 70° C. to solubilize melanin. The aliquots were then transferred to a 96-well plate and absorbance was read at 475 nm using microplate reader. A portion of the lysate was used to evaluate total protein content using […] bincinchonic acid (BCA) assay (Pierce BCA kit, Thermo Scientific). The absorbance of melanin was normalized to the total protein content for each lysate and reported as % of control.

[2] = system: αMSH-stimulated B16F10 cells; assay: Melanin content in αMSH-stimulated B16F10 cells; format: cell-based, mouse; design: dose or concentration left out as unconfirmed; details: αMSH-stimulated B16F10, 48 hours
Procedure: B16F10 cells were seeded at 1×10^5 cells/well in 12-well plates and incubated for 24 hours. The test compounds were then added in presence or absence of αMSH (100 nM), and further incubated for another 48 hours. For evaluation of melanin content, cells were trypsinized, washed in PBS and then 250 μL of 1N NaOH was added and heated to 70° C. to solubilize melanin. The aliquots were then transferred to a 96-well plate and absorbance was read at 475 nm using microplate reader. The absorbance of melanin was normalized by total protein contents and reported as % of control.

[3] = system: intracellular ROS in B16F10 cells; assay: Intracellular ROS assay (H2DCFDA) in B16F10 cells; format: cell-based, mouse; details: 48 hours
Procedure: Intracellular ROS generation was quantified using 2′,7′-dichlorodihydrofluorescein diacetate (H2DCFDA), a non-fluorescent dye which is trapped intracellularly by cleavage by intracellular esterases after reaction with reactive oxygen species (ROS); only the product, DCF, is fluorescent. For measuring intracellular ROS, B16F10 cells were seeded in 24 well plates at 4×10^4 cells/well. After 24 hours, media was aspirated and PC, THC and CMCs were added to the wells at different concentrations and further incubated for 48 hours. At the end of the incubations, the media was aspirated and cells were washed with PBS. DCFDA (Molecular Probes) was dissolved in DMSO to make 10 mM stock. DCFDA dye working stock (50 μM) was prepared by diluting the stock in DMEM (serum-free, phenol-red free and sodium pyruvate free) media and added to cells and further incubated for 45 minutes at 37° C. The cells were then washed with DPBS and fluorescence was read in bottom read mode, using a fluorescence microplate reader (Gemini EM Spectramax, Molecular Devices) set to excitation and emission wavelengths of 485 nm and 535 nm, respectively. Data was expressed as relative fluorescence % of treated vs. control.

HEM-DP cells [4] = assay: MTS cytotoxicity test with human epidermal melanocytes; format: cell-based; details: 5-25 μM, 48 hours
Procedure: For screening cytotoxicity of PC, THC and CMCs during 48 hours incubation on HEM-DP cells, we conducted MTS cytotoxicity assay. […] MTS reagent was added and incubated for 90 minutes and absorbance was read at 490 nm. The results are expressed as % relative to control.

[5] = target: T1, cellular tyrosinase in HEM-DP cells (Homo sapiens, UniProt P14679); assay: Intracellular tyrosinase activity in human melanocytes; format: cell-based; details: 48 hours
T1 construct: endogenous in cells; host or cells: HEM-DP (primary human epidermal melanocytes, darkly pigmented donor)
T1 sequence (P14679 19-529): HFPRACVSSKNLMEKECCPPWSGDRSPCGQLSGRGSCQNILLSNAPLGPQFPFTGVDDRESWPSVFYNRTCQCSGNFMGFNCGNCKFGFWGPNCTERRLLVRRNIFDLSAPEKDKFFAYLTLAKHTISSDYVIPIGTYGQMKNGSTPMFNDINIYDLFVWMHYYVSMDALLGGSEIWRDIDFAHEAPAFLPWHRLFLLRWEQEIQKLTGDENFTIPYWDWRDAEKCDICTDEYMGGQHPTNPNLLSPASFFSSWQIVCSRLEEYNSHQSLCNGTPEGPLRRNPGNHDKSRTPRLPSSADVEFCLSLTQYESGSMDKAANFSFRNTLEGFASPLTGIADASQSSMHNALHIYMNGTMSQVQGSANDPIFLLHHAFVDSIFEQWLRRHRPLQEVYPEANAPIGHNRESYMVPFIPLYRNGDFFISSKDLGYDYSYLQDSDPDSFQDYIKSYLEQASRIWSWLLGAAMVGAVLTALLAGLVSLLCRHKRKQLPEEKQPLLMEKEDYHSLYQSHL
Procedure: We quantitated the cellular tyrosinase activity of human melanocytes based on established methods. Briefly, human epidermal melanocytes from a darkly pigmented donor (HEM-DP) were cultured in 12-well tissue culture plates at density of 1.5×10^5 cells/well. After 48 hrs. media was changed and test compounds were added, and further incubated for 48 hrs. At the end of treatments, cells were trypsinized and cell pellets were washed in PBS and lysed with lysis buffer under ice for 30 minutes and then centrifuged to remove cellular debris. 50 μl of lysates were then aliquoted in 96-well microplate and 150 μl of freshly prepared 3 mM L-DOPA was added. The absorbance was then measured kinetically at 475 nm every 30 seconds for 30 minutes at 30° C. using microplate reader (Versamax®). The % inhibition of tyrosinase activity was calculated by determining melanin formation rates from the linear range of the slopes of melanin formation over time for the different samples and calculating % inhibition from the measured velocities of melanin formation.

[6] = system: B16F10 mouse melanoma cells; format: cell-based; details: for cell viability: mouse, 48 h
Procedure: In order to test the four CMCs (CMC2.14, CMC2.24, CMC2.5 and CMC2.23) alongside PC and THC, for their effects on melanin content, we first screened their nontoxic concentrations using MTS cytotoxicity (Promega CellTiter Aqueous One) assay. MTS is a tetrazolium salt which is reduced to purple colored formazan upon reaction with mitochondrial dehydrogenases. Briefly, B16F10 cells were seeded at 4×10^3 cells/well in 96-well plates for 24 hrs. […] Controls were treated with 0.16% DMSO. At the end of 48 hours, medium was aspirated and replaced by 100 μl of fresh media. MTS (20 μl) was added and incubated for 40 minutes and absorbance read at 490 nm using a Versamax® microplate reader. Cell viability was calculated from the absorbance values relative to control groups and expressed in %.

B16F10 cells = assay: Melanin content quantification in B16F10 cells; format: cell-based, mouse; details: Mus musculus, B16-F10
Procedure: B16F10 cells were seeded at 1×10^5 cells/well in 1.5 ml media in 12-well plates and incubated for 24 hours. […] For quantification of melanin content, cells were trypsinized and cell pellets were washed in PBS. Cell pellets were also visually observed for lightening of the intracellular pigment. After aspiration, 250 μL of 1N NaOH was added and heated to 70° C. to solubilize melanin. The aliquots were then transferred to a 96-well plate and absorbance was read at 475 nm using a microplate reader. A portion of the lysate was used to evaluate total protein content using BCA assay. The melanin absorbance was normalized by total protein content and expressed as % of control.

[7] = Copper chelating activity assay (pyrocatechol violet); format: physicochemical; details: PV dye method
Procedure: Metal ion chelation activity can be detected by pyrocatechol violet indicator assay which is similar to that reported in other studies with some modifications [Baek, S-H. et al. 2015]. Briefly, 100 μl of sample containing different concentrations of solutes were mixed with 50 mM sodium acetate buffer (pH 6.0) in a 96 well plate. Control group consisted of buffer only; KA at 500 μM was used as a positive control. Copper sulfate (2 mM; 10 μl) was added to the samples and incubated for 10 minutes. 10 μl of 2 mM pyrocatechol violet was then added and the plate was further incubated for 20 minutes. The absorbance was read at 632 nm using a microplate reader (Versamax). Lower absorbance compared to control was indicative of copper chelation.

MITF = MITF protein levels by cell-based ELISA in B16F10 cells; design: species or system mouse; details: B16F10, 10 μM, 48 hours
Procedure: MITF is the master regulator of melanogenesis and a known transcription factor for tyrosinase gene. The effects of PC and CMCs on micropthalmia transcription factor (MITF) proteins levels were assayed using a cell-based ELISA (LifeSpan Biosciences, Seattle). Briefly, B16F10 cells were cultured in a 96-well plate at 1×10^4 cells/well for 24 hours and then media was replaced with fresh media containing compounds in 0.1% DMSO for further 48 hours. The cells were then fixed and subsequent steps were conducted based on manufacturer instructions. The absorbance of MITF expression levels were normalized by absorbance of crystal violet stain (0.05%) and data was reported as % of control.

HaCaT cells = details: human, 48 h, 10 μM
Procedure: Briefly, 2×10^4 cells/well were seeded in 96-well plates and after 24 hours, the compounds at concentrations of 5-25 μM were added to the wells and incubated for 48 hours. Absorbance was read after 1 hour of incubation of plates and results were expressed as % of control.

[8] = system: normal human dermal fibroblasts (NHDF); assay: MTS cytotoxicity test with human dermal fibroblasts; details: 48 hours
Procedure: Briefly 5×10^3 cells/well were plated in 96 wells and compounds added for 48 hours. MTS assay was then conducted and plate incubated for 1 hour and then 100 μl of supernatants were aliquoted into 96 well plates and absorbance read at 490 nm using Versamax microplate reader.

O=c1cc(CO)occ1O [KA, kojic acid, reference compound]
reduction in melanin content (HEM-DP cells [1]; 1 mM): 10%
reduction of melanin [2]: 20%

COc1cc(CCC(=O)CC(=O)CCc2ccc(O)c(OC)c2)ccc1O [THC, Tetrahydrocurcumin]
reduction of intracellular ROS ([3]; B16F10, 5 μM): 24%
cytotoxicity (HEM-DP cells [4]): nontoxic
inhibition at 25 µM ([5]; 25 μM): 24%

COc1cc(/C=C/C(=O)CC(=O)/C=C/c2ccc(O)c(OC)c2)ccc1O [PC, Curcumin]
cytotoxicity, overall ranking [6]: most cytotoxic
increase of cell proliferation ([6]; B16F10, 5 μM, 48 hours, MTS): 13%
cell viability ([6]; 20 μM): 24.44%
cell viability ([6]; 25 μM): 16.55%
inhibition at 10 µM (B16F10 cells; B16F10, 10 μM, 48 hours): 32.1%
IC50 (B16F10 cells; B16F10 cells exposed for 48 hours, non-linear curve fitting, read-out: IC50-Melanin Inhibition): 20.8 µM
copper chelating activity [7]: did not show any effect
reduction of intracellular ROS ([3]; B16F10, 10 μM): 24%
inhibition of MITF protein levels (MITF): ≤ 30%
effect on melanin content (words) (HEM-DP cells [1]; nontoxic concentrations tested (PC 5 and 10 μM)): did not show any significant difference
inhibition of cellular tyrosinase activity ([5]; 5 μM): significantly (p<0.01) inhibited
inhibition of cellular tyrosinase activity ([5]; 10 μM): significantly (p<0.01) inhibited
cell viability (HaCaT cells): 90.12%
cell viability ([8]; 10 μM, MTS): 71.9%
toxicity ([8]; range tested 5-25 μM): significantly toxic
